From PubChem BioAssay AID2305 (GlaxoSmithKline (GSK), 2010) come the findings set out here.

This assay concerns P. falciparum 3D7 growth, pLDH absorbance. Kind of assay: blood-stage malaria parasite growth potency – strain 3D7, dose response (AID 2305).
Usually IC50 stands for the concentration that gives 50% inhibition. A low value points to higher potency. `O=C(Nc1ccc2c(c1)CCC2)c1cccc(N2CCN(c3ccncc3)CC2)c1` yielded an IC50 of 970 nM.

Compound `CC(=O)Nc1cccc(Nc2nccc(-c3c(-c4cccc(NC(=O)c5c(F)cccc5F)c4)nn4ncccc34)n2)c1` gave an IC50 of 180 nM.

Compound `O=C(NC1CCC(N2CCC(c3ccccc3C(F)(F)F)CC2)CC1)c1cc2ccccc2[nH]1` (stereo not given) returned a half-maximal inhibitory concentration (IC50) of 520 nM.

On to `O=[N+]([O-])c1cccc(S(=O)(=O)N2CCN(CC(O)COc3ccc(-c4ccccc4)cc3)CC2)c1` (stereo not given), for which the IC50 was determined as 1360 nM.

In turn, `O=C(NN=Cc1nc2ccccc2[nH]1)c1cccc([N+](=O)[O-])c1` came in with an IC50 of 630 nM.

As to `Cc1cc2nc(-c3cc(Br)ccc3O)c(-c3cc(Br)ccc3O)nc2cc1C`, the IC50 came to 850 nM.

As for `Nc1cc(-c2ccc(-c3cccs3)s2)nc2ccccc12`, the IC50 amounted to 600 nM.

`CNC(=O)C(C)N(c1ccc(Cl)cc1)c1nc(C(C)(C)C)cs1` (stereo not given) gave an IC50 of 740 nM.

Consider `c1cc(CNCCc2ccncc2)cc(-c2ccc(-c3nc4ccccc4[nH]3)cc2)c1`, for which the IC50 turned out to be 150 nM.

Compound `O=C(NCCCN1CCOCC1)c1csc(Nc2ccc(Cl)c(Cl)c2)n1` came in with an IC50 of 920 nM.

Take `CC(=O)Nc1ccc(C(=O)Nc2cccc(-c3ccc(-c4nc5c(C)cccc5[nH]4)cc3)c2)cn1`: the IC50 was found to be 190 nM.

With `CCCNC(=O)c1cncc(-c2ccc(CNCCCc3ccccc3)cc2)c1`, the IC50 was 690 nM.

Compound `Cc1cccc(C(=O)Nc2ccnc(N(C)CCCN(C)Cc3cccc(C#N)c3)c2)c1` returned an IC50 of 1320 nM.

In turn, `CC[C@H]1CN2CC[C@@H]1C[C@H]2[C@H](O)c1cc(N2CCC(O)(c3ccc(Cl)cc3)CC2)nc2ccc(OC)cc12` registered an IC50 of 70 nM.

In turn, `CCN(CC)CCCC(C)Nc1cc(C)nc2cc(Cl)ccc12` (stereo not given) came in with an IC50 of 730 nM.

Turning to `NC(N)=NCCN(Cc1ccccc1)c1ccccc1`, the IC50 amounted to 350 nM.

In the case of `CCCc1cc(C(=O)N[C@@H](Cc2ccccc2)[C@H](O)CNC(C)(C)c2cccc(OC)c2)c(F)c(N2CCCC2=O)c1`, the IC50 is 100 nM.

Turning to `CC(=O)N[C@H](C(=O)Nc1ccc(-c2cccc(-c3nc4c(C)cccc4[nH]3)c2)cc1)C(C)C`, the IC50 is 1090 nM.

The compound `Cc1cc(N2CCCC2)nc(Nc2ccc(NC(=O)Nc3ccccc3)cc2)n1` returned an IC50 of 160 nM. Against the preceding compound, the IC50 is about 6.8-fold lower.

`CCc1ccc(CNCC(CCNc2cc(=O)c3ccccc3[nH]2)NCc2cc(Br)cc(Br)c2)o1` (stereo not given) had an IC50 of 640 nM.

On to `CCNC(=O)Nc1ccc(-c2cnc(N)c(-c3nc4ccc(OC)cc4[nH]3)c2)cc1`, for which the IC50 was 500 nM.

Compound `CN(c1ncc(-c2cccc(CNCc3ccccc3O)c2)cn1)C1CCCCC1` had an IC50 of 820 nM. This IC50 is about 1.6-fold higher than that of the compound before.

With `Cc1nn(-c2cccc(C(F)(F)F)c2)c2sc(C(=O)NC3CCN(C(C)C)CC3)cc12`, the IC50 amounted to 900 nM. The IC50 values of the last two compounds are within 1.5-fold of each other.

Turning to `OC(CN1CCN(c2cccc(Cl)c2)CC1)C(c1ccccc1)c1ccccc1` (stereo not given), the IC50 worked out at 1150 nM.

As for `NCC(=O)NC12CC3CC(CC(C3)C1)C2`, the IC50 stood at 1200 nM.

With `COc1cccc(C2CCN(CCCCNC(=O)c3ccc(NC(=O)c4ccc(Cl)cc4)cc3)CC2)c1`, the IC50 came out at 960 nM.

The compound `Cc1ccc(C)c(Cn2c(N3CCC(C(=O)NCc4cccs4)CC3)nc3ccccc32)c1` had an IC50 of 940 nM.

In turn, `FC(F)(F)c1ccc2nc(-c3ccc(-c4ccc(CNCCN5CCNCC5)cc4)s3)[nH]c2c1` had a half-inhibitory concentration (IC50) of 910 nM.

`O=C(Nc1cccc(-c2ccc(-c3nc4ccc(C(F)(F)F)cc4[nH]3)s2)c1)c1cnc[nH]1` had a half-maximal inhibitory concentration (IC50) of 1110 nM.

For `COc1ccccc1CCNc1nc(C)cc(N[C@@H](Cc2ccccc2)C(=O)NCc2cccc(F)c2)n1`, the IC50 was 870 nM.

`Nc1ccc(-c2cc(Cl)cc(Cl)c2)cc1-c1cc2ccccc2[nH]1`: the half-maximal inhibitory concentration (IC50) was 690 nM.

For `CCOc1c(N2CCN(CCCCNC(=O)c3ccc(NC(=O)c4ccc(Cl)cc4)cc3)CC2)ccc2ccccc12`, the IC50 turned out to be 680 nM. The IC50 values of the last two compounds are within 1.5-fold of each other.

Regarding `CO/C(=C\C=C\c1cc2cc(Cl)c(Cl)cc2[nH]1)C(=O)NCCCN1CCN(c2ccc(OC)cc2)CC1`, the IC50 was 700 nM.

`Cc1ccc(NC(=O)c2ccc(Cl)c(Cl)c2)cc1-c1ccc(C(=O)Nc2ccncc2)cc1`: the IC50 turned out to be 570 nM.

Compound `Cc1cc(C(=O)NC2CCN(Cc3ccccc3)CC2)ccc1-c1nc2ccc(C(F)(F)F)cc2[nH]1` had an IC50 of 890 nM. This IC50 lies about 1.6-fold higher than the previous one.

On to `CCN(Cc1ccc(-c2ccc(C(F)(F)F)cc2)cc1)C(=O)Cn1c(SCc2cccc(F)c2F)cc(=O)c2cc(CN3CCCCC3)ccc21`, for which the IC50 is 800 nM. The IC50 values of the last two compounds are within 1.5-fold of each other.

`O=C(CCc1ccco1)NC1CCN(CC2(c3ccc(Cl)cc3)CCC2)CC1` registered an IC50 of 1450 nM.

As for `CC(C)(C)c1ccc(NC(=O)N[C@@H]2CCN(c3ccnc4ccccc34)C2)cc1`, the IC50 was found to be 350 nM.

The compound `OCCNc1nc(Nc2ccc(F)cc2)nc2ccccc12` yielded an IC50 of 160 nM.

Compound `COc1ccc2nccc(N3CCC(SCCNS(=O)(=O)c4ccc5c(c4)NC(=O)CS5)C3)c2n1` (stereo not given) returned an IC50 of 1580 nM.

In turn, `Cc1cc(Nc2ccc(C)c(Cl)c2)n2ncnc2n1` registered an IC50 of 550 nM.

For `CCc1c(C)nc(-n2nc(C)cc2NC(=O)C(CC)c2ccccc2)[nH]c1=O` (stereo not given), the IC50 was 710 nM.

Compound `O=C(NCCc1ccccc1)N(Cc1ccccc1-c1cccc(CNC2CCCC2)c1)C1CCN(Cc2ccccc2)CC1` showed an IC50 of 830 nM.

Regarding `CC1(C)CC(NCCCCCCCOc2ccc(OCc3ccccc3)cc2)CC(C)(C)N1`, the IC50 came out at 830 nM.

In the case of `CCOc1ccc(-c2nonc2NC(=O)c2cccc(Cl)c2)cc1OCC`, the IC50 was determined as 150 nM.

As to `CCOC(=O)C(C)(C)Oc1ccc(CN(Cc2ccc(CC(C)C)cc2)C(=O)Nc2ccc(F)cc2F)c(OC)c1`, the IC50 was determined as 240 nM.

On to `CCn1c(=O)c(C(=O)Nc2cc(Cl)c(OC)cc2OC)nc2ccccc21`, for which the IC50 turned out to be 240 nM.

The compound `O=C(Nc1ccc(OC2CCN(Cc3ccsc3)CC2)c(Cl)c1)c1ccco1` returned an IC50 of 780 nM.

Compound `CC(C)Nc1nc(NCCc2cnc[nH]2)nc(NCc2ccc(Cl)c(Cl)c2)n1` registered an IC50 of 960 nM.

`CCOC(=O)c1ccc(OCc2ccc(-c3ccccc3)cc2)cc1` came in with an IC50 of 810 nM.

`COC(=O)C(Cc1ccccc1)NC(=O)NC1CCN(c2ccnc(Nc3ccc(F)cc3)n2)C1` (stereo not given) registered an IC50 of 1090 nM.

For the compound `CC(C)(Oc1c(C2CCN(CCCCNC(=O)c3ccc(-c4ccc(Cl)cc4)cc3)CC2)ccc2c1CCCC2)C(N)=O`, the IC50 was determined as 1090 nM.

For the compound `O=C(/C=C/c1ccc(Cl)c(Cl)c1)N1CCN(C(=O)Nc2cccc(C(F)(F)F)c2)CC1`, the IC50 was determined as 700 nM.

Regarding `NCC1CCCN1Cc1ccc(-c2cccc(-c3nc4ccc(F)cc4[nH]3)c2)cc1` (stereo not given), the IC50 amounted to 750 nM.

For `CC(C)CC1(C(=O)OC(C)(C)C)CC(C(=O)OC(C)(C)C)C(c2cccs2)N1C(=O)c1ccc(C(C)(C)C)cc1` (stereo not given), the IC50 worked out at 140 nM.

Consider `O=C(Nc1ccc(C(F)(F)F)cc1)c1ccc(S(=O)(=O)NC2CCCN(CC3CCCCC3)C2)cc1` (stereo not given), for which the IC50 was found to be 720 nM.

Turning to `O=C1CCCN1CCCNCc1ccc(-c2cccc(-c3nc4ccc(F)cc4[nH]3)c2)cc1`, the IC50 worked out at 660 nM.

For `Cc1cccc2[nH]c(-c3cccc(-c4cccc(NC(=O)c5cccnc5Cl)c4)c3)nc12`, the IC50 amounted to 710 nM. The IC50 values of the last two compounds are within 1.5-fold of each other.

In turn, `O=S(=O)(Nc1cc2c(cc1OCCCN1CCCCC1)CCNCC2)c1ccc(-c2ccc(Cl)cc2)cc1` gave an IC50 of 1000 nM.

The compound `CNC(=O)Cc1ccc(C(=O)Nc2cccc(-c3ccc(-c4nc5c(C)cccc5[nH]4)s3)c2)cc1` registered an IC50 of 630 nM.

The compound `O=C(O)CCSc1ncnc2nc[nH]c12` registered an IC50 of 130 nM.

Take `CCCCNC(=O)c1cc(CNC2CCCCC2)ccc1-c1cccc(CNCc2ccc(-c3ccccc3)cc2)c1`: the IC50 was found to be 530 nM.

Take `CCN(CC)CCN(Cc1ccc(-c2ccc(C(F)(F)F)cc2)cc1)C(=O)Cn1c(CCc2ccc(F)c(F)c2F)nc(=O)c2cccnc21`: the IC50 amounted to 1130 nM.

`COc1ccc(C(=O)CCC(=O)N(Cc2ccc(-c3ccc(CNCCc4ccc(S(C)(=O)=O)cc4)cn3)cc2)Cc2ccc3c(c2)OCO3)cc1F` gave an IC50 of 940 nM.

As for `Cc1[nH]c(C)c(-c2ccc(-c3ccccc3)nc2)c(=O)c1Br`, the IC50 turned out to be 660 nM.

`CC(C)(C)c1cc(NC2CC2)nc(-c2ccccn2)n1` displayed an IC50 of 720 nM. This IC50 and that of the compound before are within 1.5-fold of each other.

`CC(=O)c1ccccc1C(=O)N1CCOc2ccc(C(O)C(c3ccccc3)c3ccccc3)cc2C1` (stereo not given) came in with an IC50 of 900 nM.

`Cc1cccc2[nH]c(-c3cccc(-c4cccc(NC(=O)c5ccc(C(N)=O)cc5)c4)c3)nc12` displayed an IC50 of 320 nM.

Turning to `COc1cccc(Nc2nnc(SCC(=O)NNC(=O)c3ccccn3)s2)c1`, the IC50 amounted to 380 nM.

Regarding `CC(=O)Oc1cc(C(=O)Nc2ccc(Cl)cc2)cc2ccccc12`, the IC50 came to 860 nM.

In the case of `COCCNCc1cccc(-c2ccc(CNC3CCN(Cc4ccccc4)CC3)cc2)c1`, the IC50 came out at 510 nM.

In turn, `COc1ccc2nccc([C@@H](O)CN3CCC(NC(=O)c4cc5c(Cl)cc(Cl)cc5[nH]4)CC3)c2c1` came in with an IC50 of 230 nM. Compared with the last compound, the IC50 is about 2.2-fold lower.

In turn, `COc1ccc2nccc([C@@H](O)CN3CCC(NCc4ccc5scnc5c4)CC3)c2c1` showed an IC50 of 400 nM. This IC50 lies about 1.7-fold higher than the previous one.

`O=C1OC2(CN1CC1CCN(Cc3ccc(O)cc3Cl)C1)c1ccccc1-c1ccccc12` (stereo not given): the IC50 stood at 1170 nM. This IC50 lies about 2.9-fold higher than the previous one.

`CCN(CC)CCOc1ccc(C(O)(C#CC(O)(c2ccc(OCCN(CC)CC)cc2)c2ccc([N+](=O)[O-])cc2)c2ccc([N+](=O)[O-])cc2)cc1` (stereo not given): the IC50 was determined as 1730 nM.

`c1cc(CNCCc2ccncc2)cc(-c2ccc(-c3nc4ccccc4[nH]3)s2)c1`: the IC50 turned out to be 340 nM.

`COc1ccc2nccc([C@@H](O)CN3CCC(NCc4ccc5c(c4)NC(=O)C(C)S5)CC3)c2c1` (stereo not given in full): the IC50 turned out to be 200 nM.

With `O=C(Nc1ccc(Cl)cc1)Nc1cccc(-c2ccc(-c3nc4ccc(F)cc4[nH]3)cc2)c1`, the IC50 was 50 nM. Against the preceding compound, the IC50 is about 4-fold lower.

`COc1cc2nc(-c3ccccc3)nc(N3CCN(CC(=O)N4CCCC4)CC3)c2cc1OC`: the IC50 came out at 1130 nM.

`Cc1ccc(CN2CCCN(Cc3ccc(C(=O)Nc4ccc(Cl)cc4)cc3)CC2)s1` gave an IC50 of 1110 nM.

For the compound `Cc1ccc(N)cc1-c1nc(NC2CC(C)(C)NC(C)(C)C2)nc2c1ccc(=O)n2-c1c(F)cccc1F`, the IC50 amounted to 840 nM. The IC50 values of the last two compounds are within 1.5-fold of each other.

As for `COc1ccc2c(NN=Cc3ccccc3)ccnc2c1`, the IC50 is 130 nM. Against the preceding compound, the IC50 is about 6.5-fold lower.

As for `CC(=O)Oc1c(C2CCN(CCCCNC(=O)c3ccc(NC(=O)c4ccc(Cl)cc4)cc3)CC2)ccc2c1CCCC2`, the IC50 worked out at 760 nM.

On to `Cc1ccc(CC(C)NCC(O)c2cccc(Br)c2)cc1` (stereo not given), for which the 50% inhibitory concentration (IC50) was determined as 800 nM.

In the case of `CC(C)(C)c1ccc(-c2cc(C(=O)N[C@@H](CO)C(=O)O)on2)cc1` (tested in a mixture with another compound), the IC50 worked out at 970 nM. The IC50 values of the last two compounds are within 1.5-fold of each other.
